Test results published in ChEMBL document CHEMBL4699477, “Tricyclic sulfones as potent, selective and efficacious RORγt inverse agonists - Exploring C6 and C8 SAR using late-stage functionalization” (Bioorg Med Chem Lett, 2020).

How the values were obtained:
[1] = Oral bioavailability in rat at 4 mg/kg; format: ADME, organism-based; settings: in vivo
[2] = Volume of distribution at steady state in rat at 2 mg/kg, iv; format: ADME, organism-based; settings: in vivo, read-out: Vdss
[3] = Cmax in dog at 2 mg/kg, po; format: ADME, organism-based, Canis lupus familiaris; design: route oral, dose 2 mg/kg; settings: in vivo
[4] = Clearance in cynomolgus monkey at 1 mg/kg, iv; format: ADME, organism-based, Macaca fascicularis; settings: in vivo
[5] = Oral bioavailability in dog at 2 mg/kg; format: ADME, organism-based, Canis lupus familiaris; settings: in vivo
[6] = Fraction unbound in human plasma; format: ADME, cell-free
[7] = Total AUC in dog at 1 mg/kg, iv; format: ADME, organism-based, Canis lupus familiaris; design: route intravenous, time AUCmax, dose 1 mg/kg; settings: in vivo
[8] = Metabolic stability in rat liver microsomes assessed as half life; format: ADME, Microsome
[9] = Fraction unbound in mouse plasma; format: ADME, cell-free
[10] = Metabolic stability in human liver microsomes assessed as half life; format: ADME, Microsome
[11] = Volume of distribution at steady state in dog at 1 mg/kg, iv; format: ADME, organism-based, Canis lupus familiaris; settings: in vivo, read-out: Vdss
Cytochrome P450 2C9 = Cytochrome P450 2C9 (Homo sapiens, UniProt P11712); assay: Inhibition of recombinant CYP2C9 (unknown origin); format: ADME
[12] = Metabolic stability in cynomolgous monkey liver microsomes assessed as half life; format: ADME, Macaca fascicularis, Microsome; settings: cynomolgus monkey
[13] = Metabolic stability in dog liver microsomes assessed as half life; format: ADME, Canis lupus familiaris, Microsome
[14] = Clearance in BALB/c mouse at 2 mg/kg, iv; format: ADME, organism-based; settings: in vivo
[15] = Oral bioavailability in cynomolgus monkey at 2 mg/kg; format: ADME, organism-based, Macaca fascicularis; settings: in vivo
[16] = Cmax in rat at 4 mg/kg, po; format: ADME, organism-based; design: route oral, dose 4 mg/kg; settings: in vivo
[17] = biological target: T1, Oxysterols receptor LXR-beta (Homo sapiens, UniProt P55055); assay: Inverse agonist activity of LXRbeta (unknown origin)
T1 sequence (P55055 whole entry): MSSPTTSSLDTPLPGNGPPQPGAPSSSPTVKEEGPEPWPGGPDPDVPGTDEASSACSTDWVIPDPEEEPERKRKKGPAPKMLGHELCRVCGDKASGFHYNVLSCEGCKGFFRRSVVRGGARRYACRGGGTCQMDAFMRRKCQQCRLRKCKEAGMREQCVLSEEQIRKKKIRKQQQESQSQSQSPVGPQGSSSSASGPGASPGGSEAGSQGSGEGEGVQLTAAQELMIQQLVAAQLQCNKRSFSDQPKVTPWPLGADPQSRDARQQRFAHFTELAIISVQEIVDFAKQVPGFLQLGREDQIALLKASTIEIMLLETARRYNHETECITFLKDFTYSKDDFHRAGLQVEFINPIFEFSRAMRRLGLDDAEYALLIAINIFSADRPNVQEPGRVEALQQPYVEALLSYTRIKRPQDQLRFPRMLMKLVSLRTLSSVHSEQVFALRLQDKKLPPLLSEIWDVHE

Cytochrome P450 3A4 = Cytochrome P450 3A4 (Homo sapiens, UniProt P08684); assay: Inhibition of recombinant CYP3A4 (unknown origin); format: ADME
[18] = Total AUC in rat at 2 mg/kg, iv; format: ADME, organism-based; design: time AUCmax, route intravenous, dose 2 mg/kg; settings: in vivo
[19] = Volume of distribution at steady state in BALB/c mouse at 2 mg/kg, iv; format: ADME, organism-based; settings: in vivo, read-out: Vdss
[20] = Oral bioavailability in BALB/c mouse at 4 mg/kg; format: ADME, organism-based; settings: in vivo
[21] = Total AUC in dog at 2 mg/kg, po; format: ADME, organism-based, Canis lupus familiaris; design: time AUCmax, route oral, dose 2 mg/kg; settings: in vivo
Cytochrome P450 2D6 = Cytochrome P450 2D6 (Homo sapiens, UniProt P10635); assay: Inhibition of recombinant CYP2D6 (unknown origin); format: ADME
Cytochrome P450 1A2 = biological target: T2, Cytochrome P450 1A2 (Homo sapiens, UniProt P05177); assay: Inhibition of recombinant CYP1A2 (unknown origin); format: ADME
T2 sequence (P05177 whole entry): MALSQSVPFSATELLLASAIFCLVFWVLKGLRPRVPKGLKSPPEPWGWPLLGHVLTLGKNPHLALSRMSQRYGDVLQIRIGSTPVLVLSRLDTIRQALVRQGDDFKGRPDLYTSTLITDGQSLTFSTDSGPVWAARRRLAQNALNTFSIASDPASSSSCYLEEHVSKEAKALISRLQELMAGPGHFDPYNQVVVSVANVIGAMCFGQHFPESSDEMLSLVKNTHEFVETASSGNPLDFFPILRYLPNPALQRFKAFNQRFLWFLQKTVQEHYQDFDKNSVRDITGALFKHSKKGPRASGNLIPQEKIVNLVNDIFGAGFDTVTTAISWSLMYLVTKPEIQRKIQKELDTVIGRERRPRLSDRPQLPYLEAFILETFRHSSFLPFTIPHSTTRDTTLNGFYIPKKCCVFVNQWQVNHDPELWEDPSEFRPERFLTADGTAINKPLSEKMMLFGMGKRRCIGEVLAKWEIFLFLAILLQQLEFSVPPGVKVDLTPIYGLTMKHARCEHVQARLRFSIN

[22] = Total AUC in cynomolgus monkey at 2 mg/kg, po; format: ADME, organism-based, Macaca fascicularis; design: route oral, time AUCmax, dose 2 mg/kg; settings: in vivo
[23] = Half life in BALB/c mouse at 2 mg/kg, iv; format: ADME, organism-based; settings: in vivo
Cytochrome P450 2C8 = biological target: T3, Cytochrome P450 2C8 (Homo sapiens, UniProt P10632); assay: Inhibition of recombinant CYP2C8 (unknown origin); format: ADME
T3 sequence (P10632 whole entry): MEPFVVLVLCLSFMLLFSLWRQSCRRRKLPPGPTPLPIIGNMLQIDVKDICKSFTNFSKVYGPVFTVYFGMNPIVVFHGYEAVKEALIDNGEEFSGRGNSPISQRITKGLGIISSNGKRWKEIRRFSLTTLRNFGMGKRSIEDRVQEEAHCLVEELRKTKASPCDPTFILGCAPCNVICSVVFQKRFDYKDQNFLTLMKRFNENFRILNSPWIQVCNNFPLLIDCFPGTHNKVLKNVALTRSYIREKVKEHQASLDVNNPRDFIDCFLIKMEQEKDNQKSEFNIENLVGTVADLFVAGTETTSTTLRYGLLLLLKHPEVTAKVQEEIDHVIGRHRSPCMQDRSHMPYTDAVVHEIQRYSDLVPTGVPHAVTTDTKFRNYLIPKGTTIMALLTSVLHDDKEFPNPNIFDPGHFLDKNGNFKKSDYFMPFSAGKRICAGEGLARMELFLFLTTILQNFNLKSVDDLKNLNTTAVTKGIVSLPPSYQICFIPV

Cytochrome P450 2C19 = Cytochrome P450 2C19 (Homo sapiens, UniProt P33261); assay: Inhibition of recombinant CYP2C19 (unknown origin); format: ADME
Chain of Cytochrome P450 2C19 (P33261 whole entry): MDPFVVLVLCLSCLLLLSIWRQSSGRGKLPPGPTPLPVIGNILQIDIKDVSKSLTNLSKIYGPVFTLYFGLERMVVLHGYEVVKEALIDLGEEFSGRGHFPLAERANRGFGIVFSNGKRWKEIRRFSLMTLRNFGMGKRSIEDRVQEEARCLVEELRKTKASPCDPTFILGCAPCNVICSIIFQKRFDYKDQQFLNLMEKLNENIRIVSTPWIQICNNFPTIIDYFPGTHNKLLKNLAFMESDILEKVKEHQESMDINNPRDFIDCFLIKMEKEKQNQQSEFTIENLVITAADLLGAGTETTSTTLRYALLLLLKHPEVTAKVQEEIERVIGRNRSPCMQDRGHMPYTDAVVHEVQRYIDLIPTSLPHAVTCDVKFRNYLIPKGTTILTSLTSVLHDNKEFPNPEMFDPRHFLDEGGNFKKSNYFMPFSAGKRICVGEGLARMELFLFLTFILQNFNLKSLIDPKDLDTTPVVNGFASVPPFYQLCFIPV

Chain of Cytochrome P450 3A4 (P08684 whole entry): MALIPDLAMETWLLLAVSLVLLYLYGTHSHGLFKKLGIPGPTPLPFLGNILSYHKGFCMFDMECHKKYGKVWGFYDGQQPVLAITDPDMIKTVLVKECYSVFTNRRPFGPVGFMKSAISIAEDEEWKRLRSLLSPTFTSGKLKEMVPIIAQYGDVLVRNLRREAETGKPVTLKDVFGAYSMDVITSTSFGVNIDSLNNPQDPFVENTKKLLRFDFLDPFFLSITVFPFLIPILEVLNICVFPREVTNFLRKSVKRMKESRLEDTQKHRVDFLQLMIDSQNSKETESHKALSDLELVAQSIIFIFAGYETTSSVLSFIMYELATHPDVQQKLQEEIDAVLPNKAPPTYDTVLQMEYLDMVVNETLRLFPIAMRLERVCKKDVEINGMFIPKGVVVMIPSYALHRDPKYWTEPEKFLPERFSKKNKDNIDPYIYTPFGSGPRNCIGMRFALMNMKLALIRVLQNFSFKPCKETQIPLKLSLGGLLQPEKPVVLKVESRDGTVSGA
Chain of Cytochrome P450 2C9 (P11712 whole entry): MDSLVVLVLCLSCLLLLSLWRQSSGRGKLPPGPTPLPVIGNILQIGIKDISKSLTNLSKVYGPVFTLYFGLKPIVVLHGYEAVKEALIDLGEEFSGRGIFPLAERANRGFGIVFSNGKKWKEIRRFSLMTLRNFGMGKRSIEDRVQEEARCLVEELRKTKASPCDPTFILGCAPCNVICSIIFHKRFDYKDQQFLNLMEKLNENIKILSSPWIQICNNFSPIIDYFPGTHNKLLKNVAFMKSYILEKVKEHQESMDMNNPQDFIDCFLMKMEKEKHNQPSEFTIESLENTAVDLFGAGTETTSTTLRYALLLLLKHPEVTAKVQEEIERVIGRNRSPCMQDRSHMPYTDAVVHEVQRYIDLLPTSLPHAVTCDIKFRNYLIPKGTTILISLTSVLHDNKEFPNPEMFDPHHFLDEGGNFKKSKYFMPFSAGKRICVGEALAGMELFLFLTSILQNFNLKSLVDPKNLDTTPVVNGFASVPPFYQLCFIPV
Chain of Cytochrome P450 2D6 (P10635 whole entry): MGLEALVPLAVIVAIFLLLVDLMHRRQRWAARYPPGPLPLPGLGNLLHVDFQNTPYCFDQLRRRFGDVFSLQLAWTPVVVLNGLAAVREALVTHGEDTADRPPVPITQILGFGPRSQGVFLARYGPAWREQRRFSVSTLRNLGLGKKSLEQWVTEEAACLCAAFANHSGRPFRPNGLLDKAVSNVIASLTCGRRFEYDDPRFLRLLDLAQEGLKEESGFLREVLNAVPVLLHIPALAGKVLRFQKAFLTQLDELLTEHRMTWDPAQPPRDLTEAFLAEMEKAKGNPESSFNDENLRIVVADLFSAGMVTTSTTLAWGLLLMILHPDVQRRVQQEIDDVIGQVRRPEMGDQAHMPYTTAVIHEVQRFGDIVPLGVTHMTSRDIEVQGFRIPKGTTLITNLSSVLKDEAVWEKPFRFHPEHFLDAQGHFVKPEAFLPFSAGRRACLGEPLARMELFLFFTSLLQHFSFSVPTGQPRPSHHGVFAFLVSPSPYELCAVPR

With `C[C@H]1C[C@H](C(=O)O)CC[C@H]1C(=O)N1CC[C@@]2(S(=O)(=O)c3ccccc3)c3cc(F)c(C(F)(C(F)(F)F)C(F)(F)F)cc3CC[C@@H]12` the bioavailability [1] was 100%, the Vd [2] was 1.3 L/kg and the Cmax [3] was 3.8 µM. It also gave a clearance [4] of 1.1 mL/min/kg, a bioavailability [5] of 90% and a fraction unbound [6] of 0.012. For the same compound, the AUC [7] was 80 µM·h, the half-life [8] was > 2 h and the fraction unbound [9] was 0.016. The half-life [10] was > 2 h, the Vd [11] was 0.7 L/kg and the IC50 (Cytochrome P450 2C9) was > 20 µM. For the same compound, the half-life [12] was > 2 h, the half-life [13] was > 2 h and the clearance [14] was 2.5 mL/min/kg. For the same compound, the bioavailability [15] was 100%, the Cmax [16] was 4.1 µM and the EC50 [17] was > 7.5 µM. For the same compound, the IC50 (Cytochrome P450 3A4) was > 20 µM, the AUC [18] was 20 µM·h and the Vd [19] was 1.6 L/kg. For the same compound, the bioavailability [20] was 98%, the AUC [21] was 144 µM·h and the IC50 (Cytochrome P450 2D6) was > 20 µM. The IC50 (Cytochrome P450 1A2) was > 20 µM, the AUC [22] was 55 µM·h and the half-life [23] was 7.7 h. For the same compound, the IC50 (Cytochrome P450 2C8) was 1.9 µM and the IC50 (Cytochrome P450 2C19) was > 20 µM.
